The text below walks through data of patent EP0326331B1, “Substituted quinolines and cinnolines” (Dow AgroSciences LLC, priority 1988, dated 1989).

Experiment [1] relates to Venturia inaequalis (apple scab). Briefly: Test 1 greenhouse foliar spray screen, apple scab on apple seedling. The class given is in vivo. The conditions noted are these: for APPL SCAB: disease control rating, foliar spray on apple seedling, 400 ppm (+++ at 100 ppm).
Experiment [2] has as its system Phytophthora infestans. The format is in vivo. The conditions noted are these: field test.
Experiment [3] concerns Septoria tritici (leaf blotch). Briefly: Test 1 greenhouse foliar spray screen, leaf blotch on wheat. The format is in vivo. The conditions noted are these: for LEAF BLOT: disease control rating, foliar spray on wheat, 400 ppm (+++ at 100 ppm).
The test system of experiment [4] is CUCURBIT DOWNY MILDEW. Briefly: Greenhouse combination test with known fungicide, foliar spray. The conditions noted are these: 1-9 rating scale.
Description: (§3) The test compounds were formulated for application by dissolving 50 mg of the compound into 1.25 ml of solvent. The solvent was prepared by mixing 50 ml of "Tween 20" with 475 ml of acetone and 475 ml of ethanol. The solvent/compound solution was diluted to 125 ml with deionized water. The resulting formulation contains 400 ppm test chemical. Lower concentrations were obtained by serial dilution with the solvent-surfactant mixture.
(§4) The formulated technical compounds were sprayed on all foliar surfaces of the host plants (or cut berry) to past run-off. Single pots of each host plant were placed on raised, revolving pedestals in a fume hood. Test solutions were sprayed on all foliar surfaces. All treatments were allowed to dry and the plants were inoculated with the appropriate pathogens within 2-4 hours.
(§5) In the tables, the time given under "Time in hours" is the number of hours elapsing between treatment and inoculation. […] In such cases, curative activity was being tested. […] In such cases, residual or protectant activity was tested. […] The results were evaluated on a 1-9 rating scale. These ratings represent the following percent disease control: 1 = 0-19%, 2 = 20-29%, 3 = 30-39%, 4 = 40-59%, 5 = 60-74%, 6 = 75-89%, 7 = 90-96%, 8 = 97-99%, and 9 = 100%.
In experiment [5] the test system is Erysiphe graminis tritici (powdery mildew). Briefly: Test 1 greenhouse foliar spray screen, powdery mildew on wheat. The format is in vivo. The conditions noted are these: for POWD MDEW: disease control rating, foliar spray on wheat, 400 ppm (+++ at 100 ppm).
Experiment [6] has as its system southern armyworm (Spodopetra eridania Cramer). The experiment in a line: Mite/insect screen, SAW. The conditions noted are these: Spodoptera eridania, percent mortality, read-out: SAW RESULTS %. The class given is in vivo. Summed up:
(§1)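 Formulation: acetone/alcohol 50:50 + sulfonate/nonionic emulsifiers, water-diluted to indicated concs. Spray both leaf surfaces to runoff, 10 psi; dry 1 h. Armyworm: 2 excised uninfested leaves in Petri dish. Score % mortality after standard exposure.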

The test system of experiment [7] is Botrytis cinerea (gray mold). The experiment in a line: Test 1 greenhouse foliar spray screen, gray mold on grape berries. The class given is in vivo. The conditions noted are these: for GRAY MOLD: disease control rating, spray on grape berries, 400 ppm (+++ at 100 ppm).
The subject of experiment [8] is Sphaerotheca fuliginea. The experiment in a line: Field tests against plant pathogens. The format is in vivo. The conditions noted are these: field test, crop cucumber. From the text:
(§2) Selected compounds were field tested against a variety of plant pathogens. […]

The subject of experiment [9] is Alternaria brassica. Briefly: Field tests against plant pathogens. The class given is in vivo. The conditions noted are these: field test, crop rape.
Excerpt: as §2

Experiment [10] relates to Pyrenophora teres. The experiment in a line: Field tests against plant pathogens. The format is in vivo. The conditions noted are these: field test, crop barley.
Excerpt: as §2

The subject of experiment [11] is Plasmopara viticola. The experiment in a line: Field tests against plant pathogens. The format is in vivo. The conditions noted are these: field test, crop grape.
Excerpt: as §2

Experiment [12] deals with Rhynchosporium secalis. Briefly: Field tests against plant pathogens. The conditions noted are these: field test, crop barley. The format is in vivo.
Excerpt: as §2

The test system of experiment [13] is corn rootworm. Briefly: Mite/insect screen, CRW. The class given is in vivo. The conditions noted are these: percent mortality, read-out: CRW RESULTS %. Summed up: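 Percent mortality is evaluated once the standard exposure period ends. Test material is applied as a water dilution of an acetone/alcohol (50:50) stock carrying two sulfonate/nonionic emulsifiers (23 and 13 g per liter).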

Experiment [14] concerns melon aphids (Aphis gossypii Glover). The experiment in a line: Mite/insect screen, MA. The class given is in vivo. The conditions noted are these: Aphis gossypii, percent mortality, read-out: MA RESULTS %. Summed up: as §1
In experiment [15] the test system is Puccinia recondita tritici (leaf rust). Briefly: Test 1 greenhouse foliar spray screen, leaf rust on wheat. The format is in vivo. The conditions noted are these: for LEAF RUST: disease control rating, foliar spray on wheat, 400 ppm (+++ at 100 ppm).
Experiment [16] has as its system Pyricularia oryzae (rice blast). Briefly: whole plant or invertebrate. The format is in vivo. The conditions noted are these: for RICE BLAST: disease control rating, foliar spray on rice, 400 ppm (+++ at 100 ppm); for activity against rice blast: summary statement in the description.
In experiment [17] the test system is CUCURBIT POWDERY MILDEW. Briefly: Greenhouse combination test with known fungicide, foliar spray. The conditions noted are these: 1-9 rating scale, time 4 hours.
Description: as §3, §4, §5
Experiment [18] has as its system Twospotted spider mites (Tetranychus urticae Koch). The experiment in a line: Mite/insect screen, SM. The class given is in vivo. The conditions noted are these: Tetranychus urticae, percent mortality, read-out: SM RESULTS %. Summed up:
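Compounds dissolved in 50:50 acetone/alcohol containing sulfonate/nonionic emulsifier blends, then diluted with water to the indicated concentrations. Leaves sprayed on both surfaces to runoff at 10 psi and dried one hour. Percent mortality scored after standard exposure periods.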

Experiment [19] concerns Pseudoperonospora cubensis (downy mildew). The experiment in a line: Test 1 greenhouse foliar spray screen, downy mildew on squash. The class given is in vivo. The conditions noted are these: for DOWN MDEW: disease control rating, foliar spray on squash, 400 ppm (+++ at 100 ppm); for activity against downy mildew: summary statement in the description.
In experiment [20] the test system is Puccinia recondita. The experiment in a line: Field tests against plant pathogens. The format is in vivo. The conditions noted are these: field test, crop wheat.
Excerpt: as §2

The subject of experiment [21] is Cercospora beticola (leaf spot). Briefly: Test 1 greenhouse foliar spray screen, leaf spot on sugar beet. The format is in vivo.
The subject of experiment [22] is plant pathogens. Briefly: Fungicidal efficacy against a broad spectrum of plant pathogens (summary of screen). The conditions noted are these: summary statement in the description. The format is in vivo.
Experiment [23] concerns Piricularia oryzae. The class given is in vivo. The conditions noted are these: field test, crop rice.
Experiment [24] concerns Erysiphe graminis tritici. Briefly: Field tests against plant pathogens. The class given is in vivo. The conditions noted are these: field test, crop wheat.
Excerpt: as §2

Experiment [25] has as its system Pseudocercosporella herpotrichoides. The experiment in a line: Field tests against plant pathogens. The conditions noted are these: field test, crop wheat. The format is in vivo.
Excerpt: as §2

Experiment [26] concerns Uncinula necator. The experiment in a line: Field tests against plant pathogens. The class given is in vivo. The conditions noted are these: field test, crop grape.
Excerpt: as §2

Experiment [27] relates to Podosphaera leucotricha. Briefly: Field tests against plant pathogens. The class given is in vivo. The conditions noted are these: field test, crop apple.
Excerpt: as §2

Where [28] appears, read: foliar, rate 200 ppm, foliar spray on squash.

Read-outs that look alike come from different tables or passages of the source.

Take `Fc1cccc2c(NCCc3ccccc3)ccnc12` [Example 5, 8-fluoro-N-(2-phenylethyl)-4-quinolinamine]: the “APPL SCAB” value in experiment [1] is “- (0-19% control at 400 ppm)”. The “pathogens against which compounds of the invention showed activity” value (from here on “pathogens against which compounds”) in experiment [2] (crop potato) is “Phytophthora infestans”; in experiment [2] (crop tomato), “Phytophthora infestans”; in experiment [8], “Sphaerotheca fuliginea”; in experiment [9], “Alternaria brassica”; in experiment [10], “Pyrenophora teres”; in experiment [11], “Plasmopara viticola”. In addition, in [12], the “pathogens against which compounds” value is “Rhynchosporium secalis”. The “LEAF BLOT” value in experiment [3] is recorded as “+++ (90-100% control at 100 ppm)”. In addition, the RESULTS in experiment [4] (Ex. 5 alone 6.00 ppm, time 4 hours) worked out at 1.0; in experiment [4] (Ex. 5 alone 12.00 ppm, time 4 hours), 7.0; in [4] (Ex. 5 alone 24.00 ppm, time 4 hours), 7.5; in experiment [4] (Ex. 5 alone 48.00 ppm, time 4 hours (treatment before inoculation)), 8.0; in [17] (Ex. 5 alone 6.00 ppm), 1.0; in [17] (Ex. 5 alone 12.00 ppm), 1.0. Further, the values for the RESULTS in experiment [17] (Ex. 5 alone 24.00 ppm) and in experiment [17] (Ex. 5 alone 48.00 ppm) were 5.0 and 6.0, respectively. Besides, in experiment [5], the “POWD MDEW” value is on record as “++ (90-100% control at 400 ppm)”. For the same compound, the mortality at 200 ppm came out at 0% in experiment [6] (SAW, SM & MA RATE 200 PPM); 0% in [14] (SAW, SM & MA RATE 200 PPM); 0% in [18] (SAW, SM & MA RATE 200 PPM). The “GRAY MOLD” value in experiment [7] was “- (0-19% control at 400 ppm)”. The mortality at 12 ppm in [13] (CRW RATE 12.00 PPM) came to 0%. Also, in experiment [15], the “LEAF RUST” value is “+++ (90-100% control at 100 ppm)”. The “RICE BLAST” value in [16] is “++ (90-100% control at 400 ppm)”. In addition, the “activity against rice blast” value in experiment [16] is recorded as “particularly excellent activity”. Besides, the “DOWN MDEW” value in experiment [19] is on record as “+++ (90-100% control at 100 ppm)”. Besides, in [19], the “activity against downy mildew” value was “particularly excellent activity”.

Turning to `Fc1cccc2c(NCCc3ccc4ccccc4c3)ccnc12` [Example 159, 8-fluoro-N-[2-(2-naphthyl)ethyl]-4-quinolinamine], the “APPL SCAB” value in experiment [1] is “- (0-19% control at 400 ppm)”. Further, the “LEAF BLOT” value in experiment [3] is recorded as “+++ (90-100% control at 100 ppm)”. Besides, in experiment [5], the “POWD MDEW” value was “++ (90-100% control at 400 ppm)”. Also, the mortality at 200 ppm amounted to 0% in experiment [6] (SAW, SM & MA RATE 200 PPM); 0% in [14] (SAW, SM & MA RATE 200 PPM); 0% in experiment [18] (SAW, SM & MA RATE 200 PPM). Moreover, the “GRAY MOLD” value in experiment [7] is reported as “- (0-19% control at 400 ppm)”. For the same compound, the “pathogens against which compounds” value in experiment [11] was “Plasmopara viticola”; in [12] it was “Rhynchosporium secalis”; in experiment [20] it was “Puccinia recondita”. Moreover, the mortality at 12 ppm in experiment [13] (CRW RATE 12.00 PPM) amounted to 0%. The “LEAF RUST” value in experiment [15] is “+++ (90-100% control at 100 ppm)”. The “LEAF SPOT” value in [21] (disease control rating, foliar spray on sugar beet, 400 ppm (+++ at 100 ppm)) is recorded as “+ (20-89% control at 400 ppm)”. Besides, the “RICE BLAST” value in [16] is on record as “+++ (90-100% control at 100 ppm)”. Moreover, in [19], the “DOWN MDEW” value was “+++ (90-100% control at 100 ppm)”. Also, the “activity against downy mildew” value in experiment [19] is “particularly excellent activity”.

As for `Cc1ccc(CCOc2ccnc3c(F)cccc23)cc1` [Example 212, 8-fluoro-4-[2-(4-methylphenyl)ethoxy]quinoline], the “activity against a broad spectrum of plant pathogens” value in experiment [22] is recorded as “particularly excellent activity”. Further, the pest or weed control at 400 ppm was in the range of 90 to 100% in [1] (Venturia inaequalis, Test 1, foliar spray on apple seedling, disease control rating at 400 ppm / 100 ppm, read-out: APPL SCAB); 90 to 100% in experiment [3] (Zymoseptoria tritici, Test 1, foliar spray on wheat, disease control rating at 400 ppm / 100 ppm, read-out: LEAF BLOT); 90 to 100% in [5] (Blumeria graminis, foliar, Test 1, foliar spray on wheat, disease control rating at 400 ppm / 100 ppm, read-out: POWD MDEW); 0 to 19% in experiment [7] (Botrytis cinerea, foliar, Test 1, spray on grape berries, disease control rating at 400 ppm / 100 ppm); 90 to 100% in [15] (Puccinia recondita, foliar, Test 1, foliar spray on wheat, disease control rating at 400 ppm / 100 ppm); 0 to 19% in [21] (Cercospora beticola, Test 1, foliar spray on sugar beet, disease control rating at 400 ppm / 100 ppm). For the same compound, the pest or weed control at 400 ppm in experiment [16] (Pyricularia oryzae, foliar, read-out: RICE BLAST, Test 1, foliar spray on rice, disease control rating at 400 ppm / 100 ppm) lay in the range of 90 to 100%; in [19] (Pseudoperonospora cubensis, foliar, Test 1, foliar spray on squash, disease control rating at 400 ppm / 100 ppm, read-out: DOWN MDEW), 90 to 100%. In addition, the mortality at 200 ppm in experiment [6] (setting [28]), in [14] (setting [28]) and in [18] (setting [28]) was 0% throughout. Moreover, the “pathogens against which compounds” value in [23] is reported as “Piricularia oryzae”; in experiment [24] it was “Erysiphe graminis tritici”; in [8], “Sphaerotheca fuliginea”; in experiment [9] it was “Alternaria brassica”; in experiment [10], “Pyrenophora teres”; in experiment [25] it was “Pseudocercosporella herpotrichoides”. The “pathogens against which compounds” value was “Uncinula necator” in experiment [26], “Plasmopara viticola” in experiment [11], “Rhynchosporium secalis” in experiment [12] and “Podosphaera leucotricha” in experiment [27]. For the same compound, the mortality at 12 ppm in [13] (CRW rate 12.00 ppm) came out at 0%. Further, the “activity against rice blast” value in experiment [16] is listed as “particularly excellent activity”. Further, the “activity against downy mildew” value in [19] is reported as “particularly excellent activity”.
